pEC50: −log10 of the molar value.
Assay: Inhibition of replication of HCV 1b BK RNA in Huh7 cells

SMILES: O=C(NCc1ccccc1Cl)Nc1ccsc1-c1nc(C(=O)O)c(O)c(=O)[nH]1 [2-(3-(3-(2-chlorobenzyl)ureido)thiophen-2-yl)-5,6-dihydroxypyrimidine-4-carboxylic acid]
- pEC50: 5.51

From BindingDB's records for doi:10.1021/jm051064t (P. Angeletti S.P.A. (Merck Research Laboratories), 2006)
